From ChEMBL document CHEMBL1201862, “PubChem BioAssay data set” (2004)
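Results reflect a 48-hour exposure of cells in 96-well plates to compound at five concentrations. GI50 is the concentration that inhibits growth by half.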 Activity calls are given as the source filed them. No stated cut-off is given here; in the data, active = GI50 up to about 1.1 µM and inactive = higher.

Key:
Assay in all cases: NCI tumour cell line growth inhibition, 48 h
[1] = system: OVCAR-5
[2] = system: SF-295
[3] = system: KM12
[4] = system: 786-0
[5] = system: T47D
[6] = system: IGROV-1
[7] = system: SNB-75
[8] = system: UACC-62
[9] = system: NCI-H460
[10] = system: SR
[11] = system: OVCAR-3
[12] = system: MDA-N
[13] = system: UO-31
[14] = system: SF-268
[15] = system: COLO 205
[16] = system: DU-145
[17] = system: MDA-MB-231
[18] = system: A549
[19] = system: NCI-H522
[20] = system: HL-60
[21] = system: NCI-H23
[22] = system: OVCAR-8
[23] = system: HOP-62
[24] = system: HT-29
[25] = system: HCT-116
[26] = system: K562
[27] = system: OVCAR-4
[28] = system: ACHN
[29] = system: CCRF-CEM
[30] = system: NCI/ADR-RES
[31] = system: PC-3
[32] = system: SW-620
[33] = system: SK-OV-3
[34] = system: SK-MEL-5
[35] = system: MCF7
[36] = system: SF-539
[37] = system: Malme-3M
[38] = system: SK-MEL-28
[39] = system: A498
[40] = system: LOX IMVI
[41] = system: SN12C
[42] = system: M14
[43] = system: TK-10
[44] = system: BT-549
[45] = system: Hs-578T
[46] = system: HOP-92
[47] = system: NCI-H226
[48] = system: MDA-MB-435
[49] = system: RXF 393
[50] = system: RPMI-8226
[51] = system: U-251
[52] = system: SNB-19
[53] = system: MOLT-4
[54] = system: CAKI-1
[55] = system: SK-MEL-2
[56] = system: EKVX
[57] = system: HCT-15
[58] = system: UACC-257

## COC(NC(=O)Nc1ccc(C)cc1)(C(F)(F)F)C(F)(F)F
[1]
  GI50: 34.9 µM (inactive)
[2]
  GI50: 26.5 µM (inactive)
[3]
  GI50: 34.7 µM (inactive)
[4]
  GI50: 54.2 µM (inactive)
[5]
  GI50: 18.7 µM (inactive)
[6]
  GI50: 26.5 µM (inactive)
[7]
  GI50: 28.1 µM (inactive)
[8]
  GI50: 10.6 µM (inactive)
[9]
  GI50: 32 µM (inactive)
[10]
  GI50: 30.9 µM (inactive)
[11]
  GI50: 42.8 µM (inactive)
[12]
  GI50: 26.4 µM (inactive)
[13]
  GI50: 17.5 µM (inactive)
[14]
  GI50: 40.4 µM (inactive)
[15]
  GI50: 18.7 µM (inactive)
[16]
  GI50: 35.6 µM (inactive)
[17]
  GI50: 32.2 µM (inactive)
[18]
  GI50: 34.8 µM (inactive)
[19]
  GI50: 22 µM (inactive)
[20]
  GI50: > 100 µM (inactive)
[21]
  GI50: 30.1 µM (inactive)
[22]
  GI50: 25.2 µM (inactive)
[23]
  GI50: 42.8 µM (inactive)
[24]
  GI50: 31 µM (inactive)
[25]
  GI50: 29.3 µM (inactive)
[26]
  GI50: 8.39 µM (inactive)
[27]
  GI50: 34.2 µM (inactive)
[28]
  GI50: 24 µM (inactive)
[29]
  GI50: 2.67 µM (inactive)
[30]
  GI50: 25.9 µM (inactive)
[31]
  GI50: 13.9 µM (inactive)
[32]
  GI50: 20.4 µM (inactive)
[33]
  GI50: 26.1 µM (inactive)
[34]
  GI50: 15.6 µM (inactive)
[35]
  GI50: 41.3 µM (inactive)
[36]
  GI50: 41.4 µM (inactive)
[37]
  GI50: 36.3 µM (inactive)
[38]
  GI50: 42.2 µM (inactive)
[39]
  GI50: 30.3 µM (inactive)
[40]
  GI50: 3.08 µM (inactive)
[41]
  GI50: 28.1 µM (inactive)
[42]
  GI50: 29.5 µM (inactive)
[43]
  GI50: 42.8 µM (inactive)
[44]
  GI50: 22.9 µM (inactive)
[45]
  GI50: 25 µM (inactive)
[46]
  GI50: 33 µM (inactive)
[47]
  GI50: 55.8 µM (inactive)
[48]
  GI50: 30.9 µM (inactive)
[49]
  GI50: 23.1 µM (inactive)
[50]
  GI50: 24.6 µM (inactive)
[51]
  GI50: 18.1 µM (inactive)
[52]
  GI50: 23.7 µM (inactive)
[53]
  GI50: 9.08 µM (inactive)

## CC(=O)c1nc2ccccc2n1CC(=O)c1ccc(Cl)cc1
[2]
  GI50: 13.4 µM (inactive)
[54]
  GI50: 5.25 µM (inactive)
[3]
  GI50: 3.02 µM (inactive)
[4]
  GI50: 3.13 µM (inactive)
[5]
  GI50: 2.45 µM (inactive)
[6]
  GI50: 1.39 µM (inactive)
[8]
  GI50: 2.02 µM (inactive)
[9]
  GI50: 2.45 µM (inactive)
[10]
  GI50: 4.84 µM (inactive)
[11]
  GI50: 4.37 µM (inactive)
[12]
  GI50: 1.93 µM (inactive)
[13]
  GI50: 9.25 µM (inactive)
[14]
  GI50: 3.94 µM (inactive)
[15]
  GI50: 20.9 µM (inactive)
[16]
  GI50: 13.4 µM (inactive)
[17]
  GI50: 2.79 µM (inactive)
[18]
  GI50: 3.17 µM (inactive)
[19]
  GI50: 2.79 µM (inactive)
[20]
  GI50: 1.79 µM (inactive)
[55]
  GI50: 14.7 µM (inactive)
[21]
  GI50: 7.64 µM (inactive)
[22]
  GI50: 2.4 µM (inactive)
[23]
  GI50: 5.85 µM (inactive)
[24]
  GI50: 12.1 µM (inactive)
[56]
  GI50: 38.2 µM (inactive)
[25]
  GI50: 2.01 µM (inactive)
[57]
  GI50: 5.2 µM
[26]
  GI50: 1.52 µM (inactive)
[27]
  GI50: 5.26 µM (inactive)
[29]
  GI50: 4.09 µM (inactive)
[30]
  GI50: 2.94 µM (inactive)
[31]
  GI50: 5.45 µM (inactive)
[32]
  GI50: 2.67 µM (inactive)
[33]
  GI50: 28.1 µM (inactive)
[35]
  GI50: 3.73 µM (inactive)
[36]
  GI50: 7.36 µM (inactive)
[37]
  GI50: 3.19 µM (inactive)
[38]
  GI50: 8.83 µM (inactive)
[39]
  GI50: 54.3 µM (inactive)
[40]
  GI50: 0.925 µM (active)
[41]
  GI50: 5.69 µM (inactive)
[42]
  GI50: 2.92 µM (inactive)
[43]
  GI50: 61.2 µM (inactive)
[44]
  GI50: 3.55 µM (inactive)
[45]
  GI50: 17.2 µM (inactive)
[58]
  GI50: 5.68 µM (inactive)
[46]
  GI50: 1.03 µM (active)
[47]
  GI50: 12 µM (inactive)
[48]
  GI50: 2.09 µM (inactive)
[49]
  GI50: 17.6 µM (inactive)
[50]
  GI50: 3.65 µM (inactive)
[51]
  GI50: 2.99 µM (inactive)
[52]
  GI50: 7.4 µM (inactive)
[53]
  GI50: 4.05 µM (inactive)
